In ChEMBL document CHEMBL1158692, “Lajollamycin, a nitro-tetraene spiro-beta-lactone-gamma-lactam antibiotic from the marine actinomycete Streptomyces nodosus” (J Nat Prod, 2005):
Converted amounts (≈) assume the structure as drawn.

Columns and labels:
Escherichia coli = test: Antimicrobial activity against Escherichia coli after 14 to 16 hrs; type: functional
Staphylococcus aureus [1] = test: Antimicrobial activity against methicillin-resistant Staphylococcus aureus after 14 to 16 hrs; type: functional
Enterococcus faecalis = test: Antimicrobial activity against vancomycin-sensitive Enterococcus faecalis after 14 to 16 hrs; type: functional
Streptococcus pneumoniae [2] = test: Antimicrobial activity against penicillin-resistant Streptococcus pneumoniae after 14 to 16 hrs; type: functional
B16-F10 = test: Cytotoxicity against mouse B16F10 cells after 3 to 6 hrs; type: functional, cell-based
Staphylococcus aureus [3] = test: Antimicrobial activity against methicillin-sensitive Staphylococcus aureus after 14 to 16 hrs; type: functional
Enterococcus faecium = test: Antimicrobial activity against vancomycin-resistant Enterococcus faecium after 14 to 16 hrs; type: functional
Streptococcus pneumoniae [4] = test: Antimicrobial activity against penicillin-sensitive Streptococcus pneumoniae after 14 to 16 hrs; type: functional

COC(CC(C)C(O)/C=C/C=C/CNC(=O)C(C)(C)C(O)\C(C)=C/C=C\C=C\C(C)=C(/C)[N+](=O)[O-])C1(O)C(C)C(=O)N(C)C12C(=O)OC2C (stereo not drawn) [LAJOLLAMYCIN]
MIC (Escherichia coli): 12 µg/mL (≈ 17.4 µM) | MIC (Staphylococcus aureus [1]): 5 µg/mL (≈ 7.27 µM) | MIC (Enterococcus faecalis): 14 µg/mL (≈ 20.4 µM) | MIC (Streptococcus pneumoniae [2]): 1.5 µg/mL (≈ 2.18 µM) | EC50 (B16-F10): 9.6 µM | MIC (Staphylococcus aureus [3]): 4 µg/mL (≈ 5.82 µM) | MIC (Enterococcus faecium): 20 µg/mL (≈ 29.1 µM) | MIC (Streptococcus pneumoniae [4]): 2 µg/mL (≈ 2.91 µM)
